Measured values as given in patent US7211576B2, “Diaminothiazoles” (Hoffmann-La Roche Inc., priority 2004, dated 2007).

Experiments:
Assay type in all cases: biochemical
human cyclin B-CDK1 = human cyclin B-CDK1 (Homo sapiens, UniProt P06493); assay: FlashPlate kinase assay, cyclin B-CDK1; conditions: Rb protein substrate, 1 μM ATP, 33P-ATP, 30 minutes room temperature
Procedure: (§1) To determine inhibition of Cdk4, Cdk2 and Cdk1 activity, kinase assays were conducted using FlashPlate™ assays (NEN™-Life Science Products). FlashPlate assays were performed using recombinant human cyclin B-CDK1, human cyclin E-CDK2 or human cyclin D1-CDK4 complexes. GST-cyclinE (GST-cycE), CDK2, GST-cyclinB (GST-cycB), CDK1, GST-CDK4 and cyclin D1 (cycD1) cDNA clones in baculovirus vectors were provided by Dr. W. Harper at the Baylor College of Medicine, Houston, Tex. Proteins were co-expressed in High Five™ insect cells and the complex was purified on glutathione Sepharose resin (Pharmacia, Piscataway, N.J.) as previously described (Harper, J. W. et al. Cell 1993, 75, 805–816). A 6×-Histidine tagged truncated form of retinoblastoma (Rb) protein (amino acid 386–928) was used as the substrate for the cycD1-CDK4, cycB-CDK1 and the cycE-CDK2 assays (the expression plasmid was provided by Dr. Veronica Sullivan, Department of Molecular Virology, Roche Research Centre, Welwyn Garden City, United Kingdom). The Rb protein is a natural substrate for phosphorylation by CDK4, CDK2 and CDK1 (see Herwig and Strauss Eur. J. Biochem. Vol. 246 (1997) pp. 581–601 and the references cited therein).
(§2) The expression of the 62Kd protein was under the control of an IPTG inducible promoter in an M15 E. coli strain. Cells were lysed by sonication and purification was carried out by binding lysates at pH 8.0 to a Ni-chelated agarose column pretreated with 1 mM imidazole. The resin was then washed several times with incrementally decreasing pH buffers to pH 6.0, and eluted with 500 mM imidazole. Eluted protein was dialysed against 20 mM HEPES pH 7.5, 30% glycerol, 200 mM NaCl, and 1 mM DTT. Purified Rb fusion protein stocks were quantitated for protein concentration, aliquoted, and stored at −70° C.
(§3) For all three kinase assays reported herein, 96-well FlashPlates were coated with Rb protein at 10 μg/ml, using 100 μl per well. Plates were incubated at 4° C. overnight or at room temperature for 3 hours on a shaker. To control for nonspecific phosphorylation, one row of wells was coated with 100 μl/well coating buffer (20 mM HEPES, 0.2 M NaCl). Plates were then washed twice with wash buffer (0.01% Tween 20 in phosphate-buffered saline). Compounds to be tested (“test compounds”) were added to the wells at 5× final concentration. Reactions were initiated by immediate addition of 40 μl reaction mix (25 mM HEPES, 20 mM MgCl2, 0.002% Tween 20, 2 mM DTT, 1 μM ATP, 4 nM ^33P-ATP) and a sufficient amount of enzyme to give counts that were at least 10-fold above background. Plates were incubated at room temperature on a shaker for 30 minutes. Plates were washed four times with the wash buffer, sealed, and counted on the TopCount scintillation counter (Packard Instrument Co., Downers Grove, Ill.]. The percent inhibition of Rb phosphorylation, which is a measure of the inhibition of CDK activity, was determined according to the following formula:
(§4) [formula] where “test compound” refers to the average counts per minute of the test duplicates, “nonspecific” refers to the average counts per minute when no CyclinD/Cdk4, etc., was added, and “total” refers to the average counts per minute when no compound was added. The IC50 value is the concentration of test compound that reduces by 50% the protein-kinase induced incorporation of the radiolabel under the test conditions described.

human cyclin D1-CDK4 = human cyclin D1-CDK4 (Homo sapiens, UniProt P11802); assay: FlashPlate kinase assay, cyclin D1-CDK4; conditions: Rb protein substrate, 1 μM ATP, 33P-ATP, 30 minutes room temperature; read-out: CDK4 IC50
Procedure: To determine inhibition of Cdk4, Cdk2 and Cdk1 activity, kinase assays were conducted using FlashPlate™ assays (NEN™-Life Science Products). FlashPlate assays were performed using recombinant human cyclin B-CDK1, human cyclin E-CDK2 or human cyclin D1-CDK4 complexes. GST-cyclinE (GST-cycE), CDK2, GST-cyclinB (GST-cycB), CDK1, GST-CDK4 and cyclin D1 (cycD1) cDNA clones in baculovirus vectors were provided by Dr. W. Harper at the Baylor College of Medicine, Houston, Tex.
as §2, §3
[formula] where “test compound” refers to the average counts per minute of the test duplicates, “nonspecific” refers to the average counts per minute when no CyclinD/Cdk4, etc., was added, and “total” refers to the average counts per minute when no compound was added.

human cyclin E-CDK2 = human cyclin E-CDK2 (Homo sapiens, UniProt P24941); assay: FlashPlate kinase assay, cyclin E-CDK2; conditions: Rb protein substrate, 1 μM ATP, 33P-ATP, 30 minutes room temperature
Procedure: as §1, §2, §3, §4

Chain of human cyclin D1-CDK4 (P11802 whole entry): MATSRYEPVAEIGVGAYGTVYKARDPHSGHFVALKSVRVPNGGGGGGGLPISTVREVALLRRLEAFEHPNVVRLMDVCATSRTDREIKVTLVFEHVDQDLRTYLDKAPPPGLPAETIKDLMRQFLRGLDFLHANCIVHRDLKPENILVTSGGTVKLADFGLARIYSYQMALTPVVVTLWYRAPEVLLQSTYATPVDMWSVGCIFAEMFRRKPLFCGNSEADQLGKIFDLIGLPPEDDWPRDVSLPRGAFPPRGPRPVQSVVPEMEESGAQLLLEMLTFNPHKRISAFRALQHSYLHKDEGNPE
Chain of human cyclin D1-CDK4 (P24385 whole entry partner): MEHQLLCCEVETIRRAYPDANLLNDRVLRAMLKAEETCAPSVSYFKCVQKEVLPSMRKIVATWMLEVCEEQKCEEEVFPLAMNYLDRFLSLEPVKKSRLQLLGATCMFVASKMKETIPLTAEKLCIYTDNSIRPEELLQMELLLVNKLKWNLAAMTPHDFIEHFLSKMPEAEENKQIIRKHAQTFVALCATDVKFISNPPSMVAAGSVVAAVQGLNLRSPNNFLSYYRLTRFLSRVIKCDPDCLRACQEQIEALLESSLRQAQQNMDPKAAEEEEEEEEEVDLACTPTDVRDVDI
Chain of human cyclin B-CDK1 (P06493 whole entry): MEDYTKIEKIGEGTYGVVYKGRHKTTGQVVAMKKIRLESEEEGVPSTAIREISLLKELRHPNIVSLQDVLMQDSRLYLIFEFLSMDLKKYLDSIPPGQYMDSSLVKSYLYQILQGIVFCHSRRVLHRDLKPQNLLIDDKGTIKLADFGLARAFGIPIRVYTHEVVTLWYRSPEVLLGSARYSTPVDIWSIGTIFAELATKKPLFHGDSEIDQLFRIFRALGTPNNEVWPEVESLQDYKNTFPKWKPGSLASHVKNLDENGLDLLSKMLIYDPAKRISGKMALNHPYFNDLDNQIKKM
Chain of human cyclin B-CDK1 (P14635 whole entry partner): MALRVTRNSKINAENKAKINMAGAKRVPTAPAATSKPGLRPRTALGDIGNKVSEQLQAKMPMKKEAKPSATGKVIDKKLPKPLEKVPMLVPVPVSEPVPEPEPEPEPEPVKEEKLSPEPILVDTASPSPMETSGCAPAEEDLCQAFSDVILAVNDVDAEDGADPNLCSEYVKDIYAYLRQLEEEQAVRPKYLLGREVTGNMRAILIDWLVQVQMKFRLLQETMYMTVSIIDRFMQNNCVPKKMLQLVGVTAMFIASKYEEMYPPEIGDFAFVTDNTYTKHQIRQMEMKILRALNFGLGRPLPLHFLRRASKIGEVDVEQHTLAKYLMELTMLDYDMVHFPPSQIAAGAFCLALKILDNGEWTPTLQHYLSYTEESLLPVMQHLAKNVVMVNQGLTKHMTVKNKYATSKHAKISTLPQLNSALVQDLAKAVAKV

IC50 (human cyclin B-CDK1) [nM] | IC50 (human cyclin D1-CDK4) [nM] | IC50 (human cyclin E-CDK2) [nM] | Compound
1170 | 53 | 4180 | Nc1nc(Nc2ccc(N3CCC(N4CCCC4)CC3)cc2)sc1C(=O)c1ccc(O)cc1 [Example 28, {4-Amino-2-[4-(4-pyrrolidin-1-yl-piperidin-1-yl)-phenylamino]-thiazol-5-yl}-(4-hydroxy-phenyl)-methanone]
1230 | 55 | 3990 | Nc1nc(Nc2ccc(N3CCC(N4CCCCC4)CC3)cc2)sc1C(=O)c1ccc(O)cc1 [Example 29, [4-Amino-2-(4-[1,4′]bipiperidinyl-1′-yl-phenylamino)-thiazol-5-yl]-(4-hydroxy-phenyl)-methanone]
5790 | 86 | 5830 | COc1ccc(C(=O)c2sc(Nc3ccc(N4CCC(N(C)C)CC4)cc3)nc2N)cc1F [Example 42, {4-Amino-2-[4-(4-dimethylamino-piperidin-1-yl)-phenylamino]-thiazol-5-yl}-(3-fluoro-4-methoxy-phenyl)-methanone]
3810 | 55 | 5670 | CN(C)C1CCN(c2ccc(Nc3nc(N)c(C(=O)c4ccc(O)cc4)s3)cc2)CC1 [Example 46, {4-Amino-2-[4-(4-dimethylamino-piperidin-1-yl)-phenylamino]-thiazol-5-yl}-(4-hydroxy-phenyl)-methanone]
5 | 8 | 136 | COc1cccc(C(=O)c2sc(Nc3ccc(N4CCC(N(C)C)CC4)cc3)nc2N)c1[N+](=O)[O-] [Example 49, {4-Amino-2-[4-(4-dimethylamino-piperidin-1-yl)-phenylamino]-thiazol-5-yl}-(3-methoxy-2-nitro-phenyl)-methanone]
3560 | 86 | 8030 | Nc1nc(Nc2ccc(N3CCC(N4CCCCC4)CC3)cc2)sc1C(=O)c1cc(F)cc(F)c1 [Example 57, [4-Amino-2-(4-[1,4′]bipiperidinyl-1′-yl-phenylamino)-thiazol-5-yl]-(3,5-difluoro-phenyl)-methanone]
4630 | 61 | 3090 | Nc1nc(Nc2ccc(N3CCC(N4CCCCC4)CC3)cc2)sc1C(=O)c1ccc(F)c(F)c1 [Example 59, [4-Amino-2-(4-[1,4′]bipiperidinyl-1′-yl-phenylamino)-thiazol-5-yl]-(3,4-difluoro-phenyl)-methanone]
4210 | 278 | 4170 | Nc1nc(Nc2ccc(N3CCC(N4CCCCC4)CC3)cc2)sc1C(=O)c1ccc(Cl)c([N+](=O)[O-])c1 [Example 62, [4-Amino-2-(4-[1,4′]bipiperidinyl-1′-yl-phenylamino)-thiazol-5-yl]-(4-chloro-3-nitro-phenyl)-methanone]
1440 | 18 | 3390 | Nc1nc(Nc2ccc(N3CCC(N4CCCCC4)CC3)cc2)sc1C(=O)c1cccc(O)c1 [Example 65, [4-Amino-2-(4-[1,4′]bipiperidinyl-1′-yl-phenylamino)-thiazol-5-yl]-(3-hydroxy-phenyl)-methanone]
3850 | 89 | 5950 | Nc1nc(Nc2ccc(N3CCC(N4CCCC4)CC3)cc2)sc1C(=O)c1ccc(F)c(F)c1 [Example 68, {4-Amino-2-[4-(4-pyrrolidin-1-yl-piperidin-1-yl)-phenylamino]-thiazol-5-yl}-(3,4-difluoro-phenyl)-methanone]
6230 | 102 | 5620 | Nc1nc(Nc2ccc(N3CCC(N4CCCC4)CC3)cc2)sc1C(=O)c1ccc(Cl)c(Cl)c1 [Example 69]
4060 | 162 | 4150 | Nc1nc(Nc2ccc(N3CCC(N4CCCC4)CC3)cc2)sc1C(=O)c1ccc(Cl)c([N+](=O)[O-])c1 [Example 71, {4-Amino-2-[4-(4-pyrrolidin-1-yl-piperidin-1-yl)-phenylamino]-thiazol-5-yl}-(4-chloro-3-nitro-phenyl)-methanone]
2590 | 88 | 8050 | Nc1nc(Nc2ccc(N3CCC(N4CCCC(O)C4)CC3)cc2)sc1C(=O)c1cc(F)cc(F)c1 (stereo not shown) [Example 73, {4-Amino-2-[4-(3-hydroxy-[1,4′]bipiperidinyl-1′-yl)-phenylamino]-thiazol-5-yl}-(3,5-difluoro-phenyl)-methanone]
4050 | 58 | 8680 | Nc1nc(Nc2ccc(N3CCC(N4CCCC(O)C4)CC3)cc2)sc1C(=O)c1ccc(F)c(F)c1 (stereo not shown) [Example 75, {4-Amino-2-[4-(3-hydroxy-[1,4′]bipiperidinyl-1′-yl)-phenylamino]-thiazol-5-yl}-(3,4-difluoro-phenyl)-methanone]
– | 124 | 8760 | Nc1nc(Nc2ccc(N3CCC(N4CCCC(O)C4)CC3)cc2)sc1C(=O)c1ccc(Cl)c(Cl)c1 (stereo not shown) [Example 76, {4-Amino-2-[4-(3-hydroxy-[1,4′]bipiperidinyl-1′-yl)-phenylamino]-thiazol-5-yl}-(3,4-dichloro-phenyl)-methanone]
2900 | 246 | 3710 | Nc1nc(Nc2ccc(N3CCC(N4CCCC(O)C4)CC3)cc2)sc1C(=O)c1ccc(Cl)c([N+](=O)[O-])c1 (stereo not shown) [Example 78, {4-Amino-2-[4-(3-hydroxy-[1,4′]bipiperidinyl-1′-yl)-phenylamino]-thiazol-5-yl}-(4-chloro-3-nitro-phenyl)-methanone]
4270 | 84 | 7840 | CN(C)C1CCN(c2ccc(Nc3nc(N)c(C(=O)c4cc(F)cc(F)c4)s3)cc2)CC1 [Example 82, {4-Amino-2-[4-(4-dimethylamino-piperidin-1-yl)-phenylamino]-thiazol-5-yl}-(3,5-difluoro-phenyl)-methanone]
3730 | 122 | 9510 | CN(C)C1CCN(c2ccc(Nc3nc(N)c(C(=O)c4ccc(F)c(F)c4)s3)cc2)CC1 [Example 84, {4-Amino-2-[4-(4-dimethylamino-piperidin-1-yl)-phenylamino]-thiazol-5-yl}-(3,4-difluoro-phenyl)-methanone]
510 | 98 | 2260 | CN(C)C1CCN(c2ccc(Nc3nc(N)c(C(=O)c4ccc(Cl)c(Cl)c4)s3)cc2)CC1 [Example 85, {4-Amino-2-[4-(4-dimethylamino-piperidin-1-yl)-phenylamino]-thiazol-5-yl}-(3,4-dichloro-phenyl)-methanone]
770 | 14 | – | Cc1cccc(C(=O)c2sc(Nc3ccc(N4CCC(N5CCCC5)CC4)cc3)nc2N)c1 [Example 109, {4-Amino-2-[4-(4-pyrrolidin-1-yl-piperidin-1-yl)-phenylamino]-thiazol-5-yl}-tolyl-methanone]

Compound | IC50 (human cyclin B-CDK1) [nM] | IC50 (human cyclin D1-CDK4) [nM] | IC50 (human cyclin E-CDK2) [nM]
N#Cc1cccc(C(=O)c2sc(Nc3ccc(N4CCC(N5CCCCC5)CC4)cc3)nc2N)c1 [Example 64, 3-[4-Amino-2-(4-[1,4′]bipiperidinyl-1′-yl-phenlamino)-thiazole-5-carbonyl]-benzonitrile] | 1280 | 15 | 2700
